Source: US20040147605A1, “Drug preparations” (priority 2001, published 2004)

System: male Hartley guinea pigs
Test: Antitussive effect test: capsaicin-induced cough in guinea pigs with SO2-induced respiratory tract inflammation
Assay type: in vivo, guinea pig
Conditions: for Frequency of cough: capsaicin 10^-6 mol/l spray, coughs counted over 15 minutes, control group 22.4 ± 0.8; for Antitussive effect (in words): summary of Table 1, administered alone or in combination
Text: The synergetic effect of using fudosteine and an antitussive compound in combination was examined according to the following method.
Five male Hartley guinea pigs for one group, each having a weight of 300-400 g, were used as test animals. According to the method of Miyata et al. (Arch. Int. Pharmacodyn. Ther., vol. 304, p. 277, 1990), the guinea pigs were exposed to SO2 gas using an exposure apparatus for two hours a day in eight consecutive days to cause respiratory tract inflammation. The samples of which the components and dose are shown in Table 1 were orally administered before exposure to SO2 gas once a day in eight consecutive days since the start date of exposure. The guinea pigs were confined in a chamber without being anesthetized. On the date following the last SO2 exposure date, capsaicin (10^−6 mol/l) was sprayed over the chamber for two minutes using a ultrasonic nebulizer (TUR-3200, Nihon Kohden Corporation) to cause cough in the guinea pigs. […] The frequency of cough during this period was counted.

| Structure (SMILES) | Frequency of cough (dextromethorphan 150 mg/kg orally once a day for 8 days) | Frequency of cough (dextromethorphan 300 mg/kg orally once a day for 8 days) | Antitussive effect (in words) | Frequency of cough (fudosteine 30 mg/kg orally once a day for 8 days) |
| --- | --- | --- | --- | --- |
| COc1ccc2c(c1)[C@]13CCCC[C@@H]1[C@H](C2)N(C)CC3 [Dextromethorphan] | 13.6 ± 1.0 | 10.2 ± 0.6 ^$ | exhibited an antitussive effect | – |
| N[C@@H](CSCCCO)C(=O)O [Fudosteine, S-(3-hydroxypropyl)-L-cysteine] | – | – | did not exhibit an antitussive effect | 22.6 ± 1.1 |
